From patent US11312719B2, “9-substituted amino triazolo quinazoline derivatives as adenosine receptor antagonists, pharmaceutical compositions and their use” (Merck Sharp & Dohme Corp., priority 2018, dated 2022)

Assays:
human A2A receptors = human A2A receptors (Homo sapiens (Human), UniProt P29274); assay: A2A antagonism in cAMP cell-based assay (LANCE cAMP, HEK293); conditions: HEK293 cells expressing human A2A receptor
Protocol: (§1) Measurement of A2A and A2B Antagonism in cAMP Cell-Based Assay
(§2) The ability of compounds to antagonize human A2A and A2B adenosine receptors was determined using a kit to measure changes in intracellular cyclic AMP levels (LANCE cAMP 384 Kit, Perkin Elmer, Cat. No. AD0264). HEK293 cells recombinantly expressing either human A2A or A2B receptors, previously frozen in Recovery Medium (Life Technologies, Cat. No. 12648-010) were thawed and diluted into stimulation buffer (HBSS (Hyclone SH 30268.01), 5 mM HEPES (Gibco 15630-106), 200 nM rolipram (Tocris, Cat. No. 0905), and 1.5% (V/v) BSA stabilizer (kit component). The cell suspension was centrifuged at 200×g for 10 min and then resuspended in stimulation buffer, supplemented with a 1:10 000 dilution of Alexa Fluor 647 anti-cAMP antibody, to a density of 6.0×10^5 cells/mL. A Labcyte Echo 550 acoustic dispenser was used to transfer up to 25 nL of test compound dissolved in DMSO into the wells of a dry Optiplate-384 plate (Perkin Elmer, Cat. No. 6008289). All subsequent liquid additions were performed using a multichannel pipettor. Next, 5 μL of the cell suspension was added to the wells of the Optiplate-384 and incubated for 30 min. at 37° C. and 5% CO2 in a humidified environment. After this time 5 μL of either 300 nM or 600 nM adenosine (Sigma Cat. No. A9251) for A2A and A2B respectively was added and incubated for 30 minutes at 37° C. and 5% CO2 in a humidified environment. At this time detection mix was prepared by combining the LANCE Eu-W8044 labeled streptavidin and Biotin-cAMP in detection buffer according to the manufacturers protocol. 10 μL of the detection mix was added to each well of the Optiplate-384 which was covered with a plate seal and incubated under ambient conditions for 2 hours prior to reading the plate using an Envision (Perkin Elmer, Waltham, Mass.) multimode plate reader. Data was normalized by defining minimal effect as stimulation in the presence of 0.25% (v/v) DMSO and maximal effect as stimulation in the presence of 1 μM ZM241385 (Cayman, Cat. No. 1036). Curve fitting of the percent effect data versus the log of compound concentration used a 4-parameter concentration response curve fitting algorithm to calculate IC50 values. Compound concentrations tested were 10,000, 3,333, 1,111, 370.4, 123.4, 41.2, 13.7, 4.6, 1.5 and 0.5 nM with 0.25% residual DMSO.

human A2B receptors = human A2B receptors (Homo sapiens (Human), UniProt P29275); assay: A2B antagonism in cAMP cell-based assay (LANCE cAMP, HEK293); conditions: HEK293 cells expressing human A2B receptor
Protocol: as §1, §2

[1] = molecular target: human A2a adenosine receptor (Homo sapiens (Human), UniProt P29274); assay: A2a receptor affinity radioligand binding assay ([3H] SCH58261); conditions: membranes from HEK293 or CHO cells expressing human A2a receptor
In short: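 IC50 values come from 4-parameter logistic fits of filter-bound radioactivity, normalized to total (1% DMSO) and nonspecific (1 μM ZM241385) binding. Recombinant human A2a membranes (HEK293 or CHO) were exposed to compound for 15–30 min, then to [3H]SCH58261 (4 nM working dilution) for 60 min at room temperature in Tris pH 7.4/MgCl2/Tween20 buffer.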

[2] = molecular target: human A2b adenosine receptor (Homo sapiens (Human), UniProt P29275); assay: A2b radioligand filtration binding assay; conditions: membranes from HEK293 cells expressing human A2b receptor
In short: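 Displacement of a tritiated A2b antagonist (working solution 14 nM) from human A2b receptor membranes of recombinant HEK293 cells, in Mg/Ca-free PBS pH 7.4, 60 min at room temperature after 15 to 30 min compound preincubation. Filtered, counted; normalized to total and 20 μM NECA non-specific binding; IC50 from logistic fit.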

Chain of human A2A receptors (P29274 whole entry): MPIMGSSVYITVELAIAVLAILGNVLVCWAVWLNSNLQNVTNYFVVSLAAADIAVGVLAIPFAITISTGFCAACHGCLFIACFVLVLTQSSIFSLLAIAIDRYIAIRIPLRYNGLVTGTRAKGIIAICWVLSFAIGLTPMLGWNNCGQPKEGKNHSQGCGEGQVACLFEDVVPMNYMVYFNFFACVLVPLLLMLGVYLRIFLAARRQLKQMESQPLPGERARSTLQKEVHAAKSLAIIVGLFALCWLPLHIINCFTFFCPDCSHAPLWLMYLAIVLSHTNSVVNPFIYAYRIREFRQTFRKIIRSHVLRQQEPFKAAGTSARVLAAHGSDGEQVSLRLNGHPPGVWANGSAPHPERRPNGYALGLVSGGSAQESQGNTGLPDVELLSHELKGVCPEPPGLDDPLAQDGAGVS
Chain of human A2a adenosine receptor (P29274 whole entry): as above
Chain of human A2b adenosine receptor (P29275 whole entry): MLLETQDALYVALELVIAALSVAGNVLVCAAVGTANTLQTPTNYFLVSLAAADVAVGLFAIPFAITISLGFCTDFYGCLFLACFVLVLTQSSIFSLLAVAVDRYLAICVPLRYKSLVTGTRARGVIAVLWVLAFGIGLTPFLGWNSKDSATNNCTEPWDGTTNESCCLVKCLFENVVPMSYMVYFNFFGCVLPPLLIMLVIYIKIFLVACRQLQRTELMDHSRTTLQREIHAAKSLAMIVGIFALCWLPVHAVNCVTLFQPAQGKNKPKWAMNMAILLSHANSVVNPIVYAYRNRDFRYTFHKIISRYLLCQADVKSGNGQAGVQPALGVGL
Chain of human A2B receptors (P29275 whole entry): as above

SMILES	IC50 (human A2A receptors) [nM]	IC50 (human A2B receptors) [nM]	IC50 [1] [nM]	IC50 [2] [nM]
COc1cc2nc(N)n3nc(C4CC(C)CN(c5cn(C(C)(C)CO)nc5C)C4)nc3c2cc1F (racemic) [Example 155, racemic, trans-2-(4-(3-(5-amino-9-fluoro-8-methoxy-[1,2,4]triazolo [1,5-c]quinazolin-2-yl)-5-methylpiperidin-1-yl)-3-methyl-1H-pyrazol-1-yl)-2-methylpropan-1-ol]	23.9	1440		
COc1cc2nc(N)n3nc(C4CC(C)CN(c5cnn(C(C)(C)CO)c5)C4)nc3c2cc1F (racemic) [Example 156, racemic, trans-2-(4-(3-(5-amino-9-fluoro-8-methoxy-[1,2,4]triazolo[1,5-c]quinazolin-2-yl)-5-methylpiperidin-1-yl)-1H-pyrazol-1-yl)-2-methylpropan-1-ol]	9.5	358		
COc1cc2nc(N)n3nc([C@@H]4C[C@H](C)CN(c5cnn(CC(C)(C)O)c5)C4)nc3c2cc1F (single isomer, unassigned) [Example 157, 1-(4-((3R,5S or 3S,5R)-3-(5-amino-9-fluoro-8-methoxy-[1,2,4]triazolo[1,5-c]quinazolin-2-yl)-5-methylpiperidin-1-yl)-1H-pyrazol-1-yl)-2-methylpropan-2-ol]	33.4	4480		
COc1cc2nc(N)n3nc([C@H]4C[C@@H](C)CN(c5cnn(CC(C)(C)O)c5)C4)nc3c2cc1F (single isomer, unassigned) [Example 158, 1-(4-((3S,5R or 3R,5S)-3-(5-amino-9-fluoro-8-methoxy-[1,2,4]triazolo[1,5-c]quinazolin-2-yl)-5-methylpiperidin-1-yl)-1H-pyrazol-1-yl)-2-methylpropan-2-ol]	1.1	32.9		
COc1cc(F)cc2c1nc(N)n1nc(C3CC(C)CN(c4cnn(CC(C)(C)O)c4)C3)nc21 (single isomer, unassigned) [Example 159, 1-(4-((3R,5S or 3S,5R)-3-(5-amino-9-fluoro-7-methoxy-[1,2,4]triazolo[1,5-c]quinazolin-2-yl)-5-methylpiperidin-1-yl)-1H-pyrazol-1-yl)-2-methylpropan-2-ol]	1	29.3		
COc1cc2nc(N)n3nc([C@@H]4CCCN(c5cnn(CS(C)(=O)=O)c5)C4)nc3c2cc1F [Example 131, (R)-9-fluoro-8-methoxy-2-(1-(1-((methylsulfonyl)methyl)-1H-pyrazol-4-yl)piperidin-3-yl)-[1,2,4]triazolo[1,5-c]quinazolin-5-amine]			11.8	66
COc1cc2nc(N)n3nc([C@@H]4CCCN(c5cn(CS(C)(=O)=O)nc5C(F)F)C4)nc3c2cc1F [Example 132, (R)-2-(1-(3-(difluoromethyl)-1-((methylsulfonyl)methyl)-pyrazol-4-yl)piperidin-3-yl)-9-fluoro-8-methoxy-[1,2,4]triazolo[1,5-c]quinazolin-5-amine]			6.7	243
COc1cc2nc(N)n3nc([C@H]4CN(c5cn(CC(C)(C)O)nc5C)CCO4)nc3c2cc1F [Example 140, (R)-1-(4-(2-(5-amino-9-fluoro-8-methoxy-[1,2,4]triazolo[1,5-c]quinazolin-2-yl)morpholino)-3-methyl-1H-pyrazol-1-yl)-2-methylpropan-2-ol]			0.8	2720
COc1cc2nc(N)n3nc([C@H]4CN(c5cnn(CC(C)(C)O)c5C)CCO4)nc3c2cc1F [Example 141, (R)-1-(4-(2-(5-amino-9-fluoro-8-methoxy-[1,2,4]triazolo[1,5-c]quinazolin-2-yl)morpholino)-5-methyl-1H-pyrazol-1-yl)-2-methylpropan-2-ol]			24.1	1760

The next lines start with the values.

IC50 (human A2A receptors) [nM]	IC50 (human A2B receptors) [nM]	IC50 [1] [nM]	IC50 [2] [nM]	SMILES
8.7	648			COc1cc(F)cc2c1nc(N)n1nc(C3CC(C)CN(c4cnn(CC(C)(C)O)c4)C3)nc21 (single isomer, unassigned) [Example 160, 1-(4-((3S,5R or 3R,5S)-3-(5-amino-9-fluoro-7-methoxy-[1,2,4]triazolo[1,5-c]quinazolin-2-yl)-5-methylpiperidin-1-yl)-1H-pyrazol-1-yl)-2-methylpropan-2-ol]
36	5310			CC1CC(c2nc3c4cc(F)cc(F)c4nc(N)n3n2)CN(c2cnn(CC(C)(C)O)c2)C1 (single isomer, unassigned) [Example 163, 1-(4-((3R,5S or 3S,5R)-3-(5-amino-7,9-difluoro-[1,2,4]triazolo[1,5-c]quinazolin-2-yl)-5-methylpiperidin-1-yl)-1H-pyrazol-1-yl)-2-methylpropan-2-ol]
1.9	47.7			CC1CC(c2nc3c4cc(F)cc(F)c4nc(N)n3n2)CN(c2cnn(CC(C)(C)O)c2)C1 (single isomer, unassigned) [Example 164, 1-(4-((3S,5R or 3R,5S)-3-(5-amino-7,9-difluoro-[1,2,4]triazolo[1,5-c]quinazolin-2-yl)-5-methylpiperidin-1-yl)-1H-pyrazol-1-yl)-2-methylpropan-2-ol]
0.8	6.4			COc1cc(F)cc2c1nc(N)n1nc(C3CC(C)CN(c4cnn(C(C)(C)CO)c4)C3)nc21 (single isomer, unassigned) [Example 165, 2-(4-((3R,5S or 3S,5R)-3-(5-amino-9-fluoro-7-methoxy-[1,2,4]triazolo[1,5-c]quinazolin-2-yl)-5-methylpiperidin-1-yl)-1H-pyrazol-1-yl)-2-methylpropan-1-ol]
20	2770			COc1cc(F)cc2c1nc(N)n1nc(C3CC(C)CN(c4cnn(C(C)(C)CO)c4)C3)nc21 (single isomer, unassigned) [Example 166, 2-(4-((3S,5R or 3R,5S)-3-(5-amino-9-fluoro-7-methoxy-[1,2,4]triazolo[1,5-c]quinazolin-2-yl)-5-methylpiperidin-1-yl)-1H-pyrazol-1-yl)-2-methylpropan-1-ol]
0.4				COc1cc(F)cc2c1nc(N)n1nc(C3CC(C)CN(c4cn(C(C)C(C)O)nc4C)C3)nc21 (single isomer, unassigned) [Example 224, (2S,3S or 2R,3R)-3-(4-((3R,5S or 3S,5R)-3-(5-amino-9-fluoro-7-methoxy-[1,2,4]triazolo[1,5-c]quinazolin-2-yl)-5-methylpiperidin-1-yl)-3-methyl-1H-pyrazol-1-yl)butan-2-ol]
0.4				COc1cc(F)cc2c1nc(N)n1nc(C3CC(C)CN(c4cn(C(C)C(C)O)nc4C)C3)nc21 (single isomer, unassigned) [Example 225, (2R,3R or 2S,3S)-3-(4-((3R,5S or 3S,5R)-3-(5-amino-9-fluoro-7-methoxy-[1,2,4]triazolo[1,5-c]quinazolin-2-yl)-5-methylpiperidin-1-yl)-3-methyl-1H-pyrazol-1-yl)butan-2-ol]
17.6				COc1cc(F)cc2c1nc(N)n1nc(C3CC(C)CN(c4cn(C(C)C(C)O)nc4C)C3)nc21 (single isomer, unassigned) [Example 226, (2R,3R or 2S,3S)-3-(4-((3S,5R or 3R,5S)-3-(5-amino-9-fluoro-7-methoxy-[1,2,4]triazolo[1,5-c]quinazolin-2-yl)-5-methylpiperidin-1-yl)-3-methyl-1H-pyrazol-1-yl)butan-2-ol]
40.2				COc1cc(F)cc2c1nc(N)n1nc(C3CC(C)CN(c4cn(C(C)C(C)O)nc4C)C3)nc21 (single isomer, unassigned) [Example 227, (2S,3S or 2R,3R)-3-(4-((3S,5R or 3R,5S)-3-(5-amino-9-fluoro-7-methoxy-[1,2,4]triazolo[1,5-c]quinazolin-2-yl)-5-methylpiperidin-1-yl)-3-methyl-1H-pyrazol-1-yl)butan-2-ol]
